Reference: patent US20220062317A1, “NA+/K+ ATPASE INHIBITORS FOR USE IN THE PREVENTION OR TREATMENT OF METASTASIS” (UNIVERSITÄT BASEL, priority 2018, published 2022)
Several values for one entry are separate records, joined by “and”; a condition that tells them apart may be missing. Equal values may be shown once.

Experiments:
[1] = test system: BRx50 CTC cell line; test: 17-day treatment, WGBS and i-cisTarget analysis of DMRs that gain methylation; format: cell-based, human; details: 20 nM
Protocol: (§1) In order to assess the effect of clustering on DNA methylation patterns and proliferation signature directly BR16 and BRx50 cell lines were cultured for 17 days to ensure that at least 4 divisions would take place. This is to allow proper time for DNA methylation remodeling to take place.
(§2) Under these conditions, for both CTC derived cell lines, a subset of cluster-associated hypomethylated DMRs from patient and xenografts regain ≥20% methylation.
(§3) Proteinase K digestion and bisulfite treatment was performed according to manufacturer's instructions for EZ DNA Methylation Direct Kit (Zymo, Cat #D5020). Bisulfite-treated DNA was eluted using 9 μl of Elution Buffer and used for library generation with TruSeq DNA methylation kit (Illumina, Cat #EGMK91396) according to manufacturer's instructions. For amplification, 18 cycles were performed using Failsafe Enzyme (Illumina, Cat #FSE51100) and indexes were introduced with Index Primers' Kit (Illumina, Cat #EGIDX81312). Library purification was performed using Agencourt AMPure XP beads at a ratio of 1:1 according to manufacturer's instructions. To avoid DNA loss during pipetting steps, Corning DeckWork low binding barrier pipet tips were used (Sigma, Cat #CLS4135-4X960EA). Library concentration was estimated using Qubit DS DNA HS Assay Kit according to manufacturer's instructions (Invitrogen, Cat #Q32854).
(§4) An enrichment score (ES) indicates the over- or underrepresentation of a certain object within a sample of many objects (=enrichment). […] A negative enrichment score indicates the opposite, namely that a feature is less present than to be expected by the values of other features in the sample. […] An enrichment score can be normalized by dividing a specific ES by the mean of the enrichment scores for all objects in the dataset to yield a normalized enrichment score (NES). Normalization of the enrichment score accounts for differences in gene set size and in correlations between gene sets and the expression dataset; therefore, a normalized enrichment scores (NES) can be used to compare analysis results across gene sets. Only TFBS with a NES score […] shown in the analysis.

[2] = test system: BR16 CTC cell line; test: as above; format: cell-based, human; details: 20 nM, 17-day treatment
Protocol: as §1, §2, §3, §4

[3] = test system: BR16 cells; test: Tail vein injection of in vitro pre-treated BR16 cells, metastasis seeding; format: in vivo, NSG mice
Protocol: To test whether ouabain and digitoxin would also enable CTC clusters disruption in vivo, the inventors took a dual approach. First, the inventors tested whether a 17-day in vitro treatment with ouabain and digitoxin would translate into a reduced ability of the treated cells to efficiently seed metastasis in untreated mice (FIG. 7A). To this end, upon treatment, BR16 cells stably expressing GFP-luciferase were injected into the tail vein of NSG mice and noninvasively monitored through luminescence imaging for their ability to seed and propagate metastatic lesions.
For tail vein experiments, NOD SCID Gamma (NSG) mice (Jackson Labs) were injected with 1×10^6 BR16-mCherry cells resuspended in 100 μl D-PBS and monitored with IVIS Lumina II (Perkin Elmer). For CTC xenograft mouse model isolation, 1×10^6 LM2-GFP, 1×10^6 BRx50-GFP or 1×10^6 BR16-GFP cells were resuspended in 100 μl of 50% Cultrex PathClear Reduced Growth Factor Basement Membrane Extract (R&D Biosystems, Cat #3533-010-02) in D-PBS and injected orthotopically in NSG mice. Blood draw was performed 4-5 weeks after tumor onset for LM2 cells, 5-6 months after tumor onset for BR16 and 6-7 months after tumor onset for BRx50 cells.

[4] = test system: BRx50 human CTC-derived cells; test: FDA-approved compound screen for CTC cluster dissociation (high content imaging); format: cell-based; details: even at lowest concentration tested (0.1 μM)
[5] = test system: BR16 CTC-derived cells; test: as above; format: cell-based, human; details: even at lowest concentration tested (0.1 μM), 2 days, hypoxia
Protocol: In order to identify actionable vulnerabilities of CTC clusters, and to test whether the epigenetic and transcriptional features of clustered CTCs are reversible upon cluster dissociation into single cells the following steps were undertaken. First, the expression of all known cell-cell junction (CCJ) components in patient samples obtained from normal breast (TGCA REF), breast cancer (TOGA REF), single CTCs and CTC clusters were assessed (Aceto et al. Cell 2014). While breast cancer cells tend to only partially reduce their CCJ repertoire compared to normal breast cells, CTCs express only a small fraction of CCJ components, likely as a consequence to their increased motility. Yet, CTC clusters retain a higher number of CCJs as compared to single CTCs. […] To this end, 2′486 FDA-approved compounds were evaluated for their ability to dissociate clusters of human breast CTC-derived cells. Cluster dissociation was assessed using a high content screening microscope and comparing cells treated with each individual compound to steady state clustered BR16 cells and 40 μm-filtered BR16 single cell suspension as negative and positive controls, respectively (FIG. 4a). […] For the majority of the 2′486 FDA-approved compounds, when using a 5 μM concentration for 2 days in hypoxic conditions, no detectable reduction in cell viability (>70% viability) nor mean cluster size (>450 μm2) in BR16 CTC-derived cells was observed. […] These compounds include inhibitors of Na^+/K^+ ATPases (n=6), HDACs (n=2), nucleotide biosynthesis (n=5), kinases (n=4), GPCRs (n=2), cholesterol biosynthesis (n=1), nuclear export (n=1), tubulin (n=9), as well as DNA binding compounds (n=8) and antibiotics (n=1).
A library containing 2,486 FDA-approved compounds was purchased from the Nexus Platform ETH Zurich. Each compound was resuspended using CTC medium at a 15 μM concentration and 20 μl were aliquoted in duplicate in a total of 64 Flat Bottom Clear Ultra Low attachment 96-well plates (Corning, Cat #3474).
To reduce cluster size in CTC derived cell lines, a 40 μm cell strainer was used (Corning, Cat #431750). […] Plates were incubated in hypoxia (5% oxygen) for 2 days and then 20 μl were transferred into a 96 well Black/clear Tissue culture treated plate (BD Falcon, Cat #353219) containing 40 μl of D-PBS (Invitrogen, Cat #14190169) and stained for 1 hr at 37° C. with a final concentration of 4 μM Hoechst 34580 (Invitrogen, Cat #H21486), 2 μM TMRM (Invitrogen, Cat #T668) and 4 μM TOTO-3 (Invitrogen, Cat #T3604). For each plate, two positive controls (non-treated cells) and two negative controls (non-treated and […] cells) were included. Z-factors were calculated per individual plate using the following formula: Z′=1−3(σs+σc)/|μs−μc|^3 (σ: standard deviation, μ: mean, s: positive control and c: negative control) (Martin et al., PLoS One 9, e88338, 2014) and ranged between 0.62-0.937. Plates were scanned using Operetta High Content Imaging System (Perkin Elmer) and cluster analysis was performed using Harmony High Content Imaging and Analysis Software (Perkin Elmer).

C[C@H]1O[C@@H](O[C@H]2[C@@H](O)C[C@H](O[C@H]3[C@@H](O)C[C@H](O[C@H]4CC[C@@]5(C)[C@H](CC[C@@H]6[C@@H]5CC[C@]5(C)[C@@H](C7=CC(=O)OC7)CC[C@]65O)C4)O[C@@H]3C)O[C@@H]2C)C[C@H](O)[C@@H]1O [digitoxin, Digitoxin]
NES score of TFBS BCL11A in DMRs with ≥20% gain in methylation [1]: 7.65
NES score of TFBS BDP1 in DMRs with ≥20% gain in methylation [1]: 6.83
NES score of TFBS BHLHE40/4 in DMRs with ≥20% gain in methylation [1]: 4.61
NES score of TFBS FOS in DMRs with ≥20% gain in methylation [1]: 4.2 and 3.4
NES score of TFBS HMBOX1 in DMRs with ≥20% gain in methylation [1]: 3.749
NES score of TFBS HSF1 in DMRs with ≥20% gain in methylation [1]: 7.2
NES score of TFBS KDM5D in DMRs with ≥20% gain in methylation [1]: 3.77
NES score of TFBS LEF1 in DMRs with ≥20% gain in methylation [1]: 3.01
NES score of TFBS LSM6 in DMRs with ≥20% gain in methylation [1]: 3.05
NES score of TFBS OCT4 in DMRs with ≥20% gain in methylation [1]: 3.49 and 3.4 and 3.37
NES score of TFBS POU1F1 in DMRs with ≥20% gain in methylation [1]: 4.02 and 3.98
NES score of TFBS REST in DMRs with ≥20% gain in methylation [1]: 4.85 and 3.16 and 3.11
NES score of TFBS STAT3 in DMRs with ≥20% gain in methylation [1]: 3.22
NES score of TFBS ZKSCAN8 in DMRs with ≥20% gain in methylation [1]: 4.32
NES score of TFBS ZNF493 in DMRs with ≥20% gain in methylation [1]: 3.88
number of DMRs with ≥20% gain in methylation [1]: (n = 124)
NES score of TFBS BDP1 in DMRs with ≥20% gain in methylation [2]: 4.18,
NES score of TFBS CEBPD in DMRs with ≥20% gain in methylation [2]: 3.76
NES score of TFBS EZH2 in DMRs with ≥20% gain in methylation [2]: 4.63
NES score of TFBS FOS in DMRs with ≥20% gain in methylation [2]: 6.40 and 3.63 and 3.25
NES score of TFBS FOXG1/O1 in DMRs with ≥20% gain in methylation [2]: 3.61
NES score of TFBS IRX3 in DMRs with ≥20% gain in methylation [2]: 5
NES score of TFBS IRX6 in DMRs with ≥20% gain in methylation [2]: 5 and 3.67
NES score of TFBS KDM5A in DMRs with ≥20% gain in methylation [2]: 4.355
NES score of TFBS MEIS1 in DMRs with ≥20% gain in methylation [2]: 3.11
NES score of TFBS RORA in DMRs with ≥20% gain in methylation [2]: 4.93 and 3.45
NES score of TFBS SOX2 in DMRs with ≥20% gain in methylation [2]: 3.22
NES score of TFBS SOX18 in DMRs with ≥20% gain in methylation [2]: 3.99 and 3.91
NES score of TFBS STAT3 in DMRs with ≥20% gain in methylation [2]: 3.31
NES score of TFBS YAP5 in DMRs with ≥20% gain in methylation [2]: 5.4 and 5.32 and 4.56
NES score of TFBS ZNF92 in DMRs with ≥20% gain in methylation [2]: 3.44
number of DMRs with ≥20% gain in methylation [2]: (n = 150)
expression of cleaved caspase 3 compared to control cells ([3]; cancer cells in lungs, pre-treated cells, day 1): significant increase
ability of BR16 cells to lodge in the lung tissue immediately after injection (bioluminescence flux) ([3]; cells pre-treated 17 days in vitro, 20 nM, tail vein, day 0): did not affect
ability to survive during the first day upon arrival (bioluminescence flux) ([3]; cells pre-treated 17 days in vitro, 20 nM, tail vein, day 1): reduced ability to survive
metastatic outgrowth ([3]; pre-treated cells, no further treatment in vivo, 72 days upon injection): delayed metastatic outgrowth
mean cluster size [4]: significant decrease in mean cluster size
mean cluster size [5]: significant decrease in mean cluster size
